This is an account of results in paper PMC5751249, “Anti-Diabetic Effect of Organo-Chalcogen (Sulfur and Selenium) Zinc Complexes with Hydroxy-Pyrone Derivatives on Leptin-Deficient Type 2 Diabetes Model ob/ob Mice” (International Journal of Molecular Sciences, 2017).

Data set [1] relates to type 2 diabetic ob/ob mice. Put plainly: Triglyceride and glycogen contents in the liver. Format: in vivo. The note with it: ob/ob mice after 28 days oral treatment. The procedure:
Lipids in the liver were extracted according to modified Folch method. TG in the extracted lipids was detected using the triglyceride E test wako (Wako Pure Chemicals Co., Osaka, Japan). Glycogen in the liver was extracted with a strong base (30% KOH aq). Then, ethanol precipitation methods (using 95% ethanol and saturated Na2SO4), hydrolysis, and neutralization (with 2.4 M HCl aq and 0.8 M NaOH aq) of the glycogen extracts were performed, resulting in degradation to glucose solution. To detect the glucose levels in the solution using the glucose CII test wako (Wako Pure Chemicals Co., Osaka, Japan), glycogen levels in the liver were estimated. Because the liver sample of normal mice was used up during TG detection and ICP-MS analysis, glycogen content in the liver could not be detected.

Data set [2] has as its system Isolated male Wistar rat epididymal adipocytes. On the set-up: method as in PMID 29843022. The following applies: 20 μM Zn complex, means ± SDs, three runs; cited from earlier work.
A short description of data set [3]: Organ distribution of Zn and Se by ICP-MS after 28 days oral treatment. The format is in vivo, mice. The procedure: (§1) After OGTT, HbA1c levels were measured in blood obtained from the mouse tail vein using an immunoassay with a DCA 2000 analyzer (Bayer-Sankyo Co., Ltd., Tokyo, Japan). The mice were subjected to a 12-h fast and blood samples were collected from the orbital vein or postcaval vein under isoflurane anesthesia using heparinized tools. Collected samples were then centrifuged at 650× g for 10 min at 4 °C, and the resultant plasma samples were used to analyze various biochemical parameters. The levels of AST, ALT, BUN, TG, T-CHO, and ALP in plasma samples were determined using a Fuji Dry Chem system. The plasma levels of insulin and adiponectin were determined using an ultra-sensitive Mouse Insulin ELISA Kit (Morinaga Institute of Biological Science, Inc., Kanagawa, Japan) and an adiponectin immunoassay kit (R&D Systems Inc., Minneapolis, MN, USA), respectively. After collecting the blood samples, mice were subjected to dissection under isoflurane anesthesia, and the resultant tissue samples were washed in saline. Each of the samples was dehydrated for a week in desiccators, weighed, and then heated in 5% HNO3 (5 mL) for 5 h at 110 °C in a closed system. The resultant solution was centrifuged at 1250× g for 15 min, and the supernatant was diluted using 5% HNO3. Both Zn and Se concentrations in organs were determined with an ICP-MS Agilent 7700x/Mass Hunter instrument (Agilent Technologies Inc., Santa Clara, CA, USA). The Zn and Se concentrations in each sample were calculated using linear regression of the standard curves prepared from standard solutions of the respective trace elements.

For data set [4], the system named is type 2 diabetic ob/ob mice. Format: in vivo. The procedure:
as §1

Data set [5] relates to type 2 diabetic ob/ob mice. Put plainly: Histopathology and morphometric analysis of pancreas and liver (HE staining). The note with it: 14-week-old mice. Format: in vivo. The procedure: Excised pancreas and liver from 14-week-old mice were immediately fixed in 10% buffered formalin for a week, sectioned at a thickness of 3 μm, and stained with HE for histopathological examination. HE-stained tissue sections were scanned using a Moticam T2 (Shimadzu Co., Kyoto, Japan) to prepare digital images. Both pancreatic islet area and glycogen and fat deposition areas were calculated with the dedicated image processing software WinROOF (Mitani Corp., Tokyo, Japan).

Data set [6] has as its system type 2 diabetic ob/ob mice. Nature of the data set: Oral glucose tolerance test (OGTT) after 28 days treatment. The format is in vivo. The procedure: After treatment with [Zn(hmpt)2] or [Zn(hmps)2] for 28 days, OGTTs were performed. The ob/ob mice and +/+ mice were fasted for 12-h and glucose (1 g/kg body weight) was given orally. Blood samples were obtained from the tail vein at 0, 15, 30, 45, 60, 90, and 120 min after glucose administration. Blood glucose concentrations were measured using a Glucocard.

Data set [7] deals with type 2 diabetic ob/ob mice. Nature of the data set: Daily oral treatment of ob/ob mice for 28 days: blood glucose, body weight, water intake. Format: in vivo. The procedure: The anti-diabetic effects of both [Zn(hmpt)2] and [Zn(hmps)2] were examined in ob/ob mice. The ob/ob and +/+ mice were used as type 2 diabetic and normal (non-diabetic) mice, respectively. The ob/ob (10-week-old) and +/+ (10-week-old) mice received daily oral treatment of either Zn complexes dissolved in PEG-400 or PEG-400 only, respectively. The mice received oral treatments of [Zn(hmpt)2] or [Zn(hmps)2] at doses of 2.5–10 mg Zn/kg or 1.0–5.0 mg Zn/kg for 28 days, respectively. Blood glucose levels (BGL) were measured using a Glucocard (Arkray, Kyoto, Japan) just before treatment with the Zn complexes, and the doses were regulated based on the BGL. Over 28 days, BGL, body weight, food intake, and water intake were measured every day. The number of normal mice (+/+ mice), control mice (ob/ob mice), [Zn(hmpt)2]-treated, and [Zn(hmps)2]-treated mice was 6, 8, 8, and 8 in the initial animal experiments, respectively. This was modified to 6, 6, 7, and 8 after the end of experiments as two control mice died naturally by the end of experiments, and one [Zn(hmpt)2]-treated mouse died from an accident during the oral glucose tolerance test.

Another data set relates to male ICR mice. On the set-up: method as in doi:10.1248/jhs1956.39.4_289. The following applies: six days per week, 30 days, cited from earlier work.
The subject of a further data set is male Wistar rats. More on the design: method as in earlier work. The note with it: in food 10 µg sodium selenite/kg/day (4.6 µg Se/kg/day), 3 months; cited from earlier work.

`Cc1occc(=[Se])c1[O-].Cc1occc(=[Se])c1[O-].[Zn+2]` [[Zn(hmps)2], bis(3-hydroxy-2-methyl-4(H)-pyran-4-seleno)Zn]: the “Glycogen content in the liver” value in data set [1] (control 0.08 ± 0.04) is 0.04 ± 0.01 mg/g liver. In [1] (control 437 ± 139), the “TG content in the liver” value is 443 ± 42 mg/g liver. Further, the “Glucose Uptake” value in [2] was 138 ± 6 µg/10^6 Cells. For the same molecule, in data set [3] ([Zn(L)] = 1.0, [Zn(L)2] = 0.5), the “Δ[Zn]/Δ[Se] molar ratio, bone” value was found to be 6.9; the “Δ[Zn]/Δ[Se] molar ratio, kidney” value is reported as 0.25; the “Δ[Zn]/Δ[Se] molar ratio, liver” value came to 0.61; the “Δ[Zn]/Δ[Se] molar ratio, pancreas” value was found to be 27. For the same molecule, the “Se concentration, bone” value in data set [3] (dry tissue, ob/ob mice after 28 days oral treatment, control 0.5 ± 0.2) was found to be 1.9 ± 0.6 µg/g. Moreover, the “Se concentration, muscle” value in data set [3] (dry tissue, ob/ob mice after 28 days oral treatment, control 1.3 ± 0.4) is 2.5 ± 0.4 **^,#,†† µg/g. Also, the “Se concentration, liver” value in data set [3] (dry tissue, ob/ob mice after 28 days oral treatment, control 2.1 ± 0.3) was found to be 5.1 ± 0.6 µg/g. In [3] (dry tissue, ob/ob mice after 28 days oral treatment, control 2.3 ± 0.6), the “Se concentration, pancreas” value is given as 3.4 ± 0.8 **^,##,†† µg/g. Moreover, in data set [3] (dry tissue, ob/ob mice after 28 days oral treatment, control 2.7 ± 0.8), the “Se concentration, spleen” value is on record as 9.1 ± 2.4 **^,##,†† µg/g. In addition, the “Se concentration, kidney” value in [3] (dry tissue, ob/ob mice after 28 days oral treatment, control 6.4 ± 0.2) was 12.7 ± 2.0 **^,##,†† µg/g. Further, the “Zn concentration, liver” value in data set [3] (dry tissue, ob/ob mice after 28 days oral treatment, control 44 ± 5) was 46 ± 6 ^##^,† µg/g. The “Zn concentration, muscle” value in [3] (dry tissue, ob/ob mice after 28 days oral treatment, control 47 ±10) is recorded as 41 ± 2 µg/g. In data set [3] (dry tissue, ob/ob mice after 28 days oral treatment, control 67 ± 3), the “Zn concentration, kidney” value is reported as 68 ± 4 µg/g. Moreover, in data set [3] (dry tissue, ob/ob mice after 28 days oral treatment, control 100 ± 17), the “Zn concentration, spleen” value is 95 ± 12 µg/g. In addition, the “Zn concentration, pancreas” value in [3] (dry tissue, ob/ob mice after 28 days oral treatment, control 133 ± 19) is on record as 158 ± 28 µg/g. For the same molecule, the “Zn concentration, bone” value in data set [3] (dry tissue, ob/ob mice after 28 days oral treatment, control 154 ± 7) is 162 ± 10 *^,^†† µg/g. In [3] (mouse, in vivo, po), the “Δ[Se], bone” value turned out to be 18 nmol/g; the “Δ[Se], kidney” value came to 81 nmol/g; the “Δ[Se], liver” value is listed as 38 nmol/g; the “Δ[Se], pancreas” value is 14 nmol/g. Moreover, in data set [3] (mouse, in vivo, po), the “Δ[Se], plasma” value was determined as 6 nmol/g; the “Δ[Zn], bone” value is on record as 124 nmol/g; the “Δ[Zn], kidney” value was 20 nmol/g; the “Δ[Zn], liver” value turned out to be 23 nmol/g. Moreover, in data set [3] (mouse, in vivo, po), the “Δ[Zn], pancreas” value amounted to 375 nmol/g and the “Δ[Zn], plasma” value is listed as 6 nmol/g. Further, in [3] (ob/ob mice after 28 days oral treatment, control 0.6 ± 0.1), the “Se concentration, plasma” value is 1.1 ± 0.2 **^,##,†† µg/mL. Also, the “Zn concentration, plasma” value in [3] (ob/ob mice after 28 days oral treatment, control 2.1 ± 0.1) is reported as 2.5 ± 0.2 **^,## µg/mL. Besides, in [4] (mouse, in vivo, po), the “ALP (plasma)” value is 550 ± 89 **^,##,†† U/L, the “ALT (plasma)” value was 355 ± 138 **^,##,†† U/L, the “AST (plasma)” value was 200 ± 55 **^,##,†† U/L and the “BUN (plasma)” value was 24 ± 3 **^,## mg/dL. The “Insulin (fasting plasma)” value in data set [4] (ob/ob mice after 28 days oral treatment, control 2.2 ± 1.0) stood at 1.4 ± 0.6 ng/mL. Moreover, the HbA1c in [4] (ob/ob mice after 28 days oral treatment, control 7.9 ± 0.8) is on record as 6.7 ± 0.4 **^,## %. Also, the “Adiponectin (plasma)” value in data set [4] (ob/ob mice after 28 days oral treatment, control 8.2 ± 1.1) came to 9.0 ± 0.8 µg/mL. In addition, in data set [4] (ob/ob mice after 28 days oral treatment, control 83 ± 16), the “TG (plasma)” value was 87 ± 11 mg/dL. The “T-CHO (plasma)” value in data set [4] (ob/ob mice after 28 days oral treatment, control 195 ± 16) was 186 ± 16 mg/dL. In addition, the “Pancreatic islet numbers per section” value in [5] (among normal, control and treated mice) is listed as “not significantly changed”. For the same molecule, in data set [5] (between control and treated mice), the “Glycogen and fat deposition area ratio in the liver” value is recorded as “no significant differences”. Besides, the “Pancreatic islet area ratio and size” value in data set [5] (compared with normal mice) is given as “significantly increased”. Moreover, the “Area under the blood glucose concentration-time curve (AUC) in OGTT” value in data set [6] (1 g glucose/kg oral, after 28 days treatment, compared with control mice) was “significantly decreased”. Further, the “Fasting blood glucose level (0 min of OGTT)” value in data set [6] (ob/ob mice after 28 days oral treatment, 12-h fast, control 237 ± 52 mg/dL) came out at 172 ± 38 mg/dL. In data set [7] ([Zn(hmpt)2] 2.5–10 mg Zn/kg, [Zn(hmps)2] 1.0–5.0 mg Zn/kg), the “Blood glucose level by the end of treatment” value was “approximately 200 mg/dL”. Further, in [7] (control 12.6 ± 1.6 g, p < 0.01 vs. control), the “Water intake on the final day” value came out at 6.9 ± 0.5 g. Moreover, the “Body weight change during treatment” value in [7] (loss seen day 22 to 25, recovered after dose reduction) is “Body weight gains”.
As to `N[C@@H](C[SeH])C(=O)O` (racemic) [D,L-selenocysteine], the Lethality in the data set with male ICR mice (oral once daily 30 mg/kg/day (13.9 mg Se/kg/day)) was 100%. Moreover, the Hepatic histology finding result in the data set on male ICR mice (oral once daily 30 mg/kg/day) was “vacuolation of centrilobular and peripheral hepatocytes”.
As for `O=[Se]([O-])[O-].[Na+].[Na+]` [sodium selenite], in the data set on male Wistar rats, the Hepatic histology finding entry was “necrotic areas in hepatic sections were observed”.
